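48-hour exposure; five concentrations; linearly interpolated endpoints. GI50 marks 50% less growth. TGI: total growth inhibition.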

Some test systems named below: A549 NSCLC; EKVX NSCLC; HOP-62 NSCLC; MDA-MB-231 breast; NCI-H522 lung; NCI/ADR-RES ovarian; SF-295 CNS; SK-MEL-5 melanoma; SNB-75 CNS; TK-10 renal.
Experiment in all cases: NCI-60 cell line screen, 48 h

Take `Clc1ccc(CCNCCNC2(c3cc4ccccc4s3)CCCCC2)cc1Cl`: the TGI is 3.81 µM in the test on A549 NSCLC; 3.99 µM in the test on EKVX NSCLC; 2.6 µM in the test with HOP-62 NSCLC; 3.24 µM with MDA-MB-231 breast; 3.37 µM in the test with NCI-H522 lung; 3.47 µM in the test on NCI/ADR-RES ovarian. Further, the TGI in the test on SF-295 CNS came to 3.04 µM; with SK-MEL-5 melanoma it was 3.12 µM; in the test with SNB-75 CNS, 3.72 µM; with TK-10 renal it was 3.07 µM.
On to `Cc1cc2nc3c(C)c4ccccc4c(C)n3c2cc1C`, for which the TGI is more than 10 µM with A549 NSCLC; more than 10 µM with EKVX NSCLC; more than 10 µM with HOP-62 NSCLC; 7.51 µM in the test on MDA-MB-231 breast; more than 10 µM with NCI-H522 lung; 8.41 µM in the test with NCI/ADR-RES ovarian. The TGI with SF-295 CNS, with SK-MEL-5 melanoma, with SNB-75 CNS and with TK-10 renal was more than 10 µM throughout.
Consider `CCc1c[n+]2c(cc1C1=CN3c4ccccc4[C@]45CCN6C/C(=C/CO)[C@H](C[C@H]64)[C@@H]([C@@H]1O)[C@H]35)-c1[nH]c3ccccc3c1CC2`, for which the TGI with A549 NSCLC, in the test with EKVX NSCLC, with HOP-62 NSCLC, in the test with MDA-MB-231 breast, with NCI-H522 lung and in the test with NCI/ADR-RES ovarian was more than 50 µM in each case. The TGI in the test on SF-295 CNS, in the test with SK-MEL-5 melanoma, in the test with SNB-75 CNS and with TK-10 renal was more than 50 µM in each case.
Turning to `Cc1ccc(S(=O)(=O)N(CC(O)COc2ccccc2)c2ccccc2Cl)cc1` (centres undefined), the TGI in the test with A549 NSCLC worked out at 27.9 µM; in the test with EKVX NSCLC, 31.8 µM; in the test on HOP-62 NSCLC, 34.8 µM; in the test with MDA-MB-231 breast it was 29.3 µM; in the test with NCI-H522 lung it was 25.1 µM; in the test on NCI/ADR-RES ovarian it was 37.8 µM. Also, the TGI with SF-295 CNS was found to be 43.5 µM; with SK-MEL-5 melanoma, 27.8 µM; with SNB-75 CNS it was 41.7 µM; with TK-10 renal it was 29.3 µM.
Take `CCc1cc2c(cc1O)CC[C@@H]1[C@@H]2CC[C@]2(C)[C@@H](O)CC[C@@H]12`: the TGI in the test with A549 NSCLC came out at 21.3 µM; in the test with EKVX NSCLC, 25.5 µM; with HOP-62 NSCLC it was 19.8 µM; with MDA-MB-231 breast it was 21.4 µM; in the test on NCI-H522 lung, 27.3 µM; with NCI/ADR-RES ovarian it was 9.92 µM. The TGI in the test on SF-295 CNS turned out to be 12.1 µM; with SK-MEL-5 melanoma, 20.4 µM; in the test on SNB-75 CNS it was 7.59 µM; in the test on TK-10 renal, 60.9 µM.
Regarding `CC(=O)O[C@H]1C(=O)[C@@]2(C)C(C(OC(=O)c3ccccc3)[C@]3(O)CC(OC(=O)C(O)C(NC(=O)c4cccc(Cl)c4)c4ccccc4)C(C)=C1C3(C)C)[C@]1(OC(C)=O)CO[C@@H]1C[C@@H]2O` (some centres undefined), the TGI in the test on A549 NSCLC was more than 10 µM; in the test on EKVX NSCLC it was more than 10 µM; with HOP-62 NSCLC it was more than 10 µM; with MDA-MB-231 breast, 8.72 µM; with NCI-H522 lung, 3.83 µM; in the test with NCI/ADR-RES ovarian, more than 10 µM. Moreover, the TGI is more than 10 µM with SF-295 CNS, 6.22 µM with SK-MEL-5 melanoma, 8.9 µM with SNB-75 CNS and more than 10 µM in the test on TK-10 renal.
With `O=C(/C=C/c1cc2ccccc2[nH]c1=O)c1ccc(O)cc1`, the GI50 in the test on A549 NSCLC was 2.73 µM; in the test on EKVX NSCLC, 13.4 µM; in the test with HOP-62 NSCLC, 2.62 µM; in the test on MDA-MB-231 breast it was 3.51 µM; with NCI-H522 lung, 1.7 µM; in the test on NCI/ADR-RES ovarian, 2.9 µM. Also, the GI50 in the test with SF-295 CNS was 7.04 µM; in the test with SK-MEL-5 melanoma it was 3.98 µM; in the test on SNB-75 CNS it was 9.3 µM; in the test with TK-10 renal, 3.81 µM. The TGI in the test with A549 NSCLC is 11.8 µM; in the test with EKVX NSCLC it was 27.2 µM; in the test with HOP-62 NSCLC it was 8.18 µM; in the test on MDA-MB-231 breast it was 15 µM; in the test with NCI-H522 lung, 3.29 µM; in the test with NCI/ADR-RES ovarian, more than 100 µM. Further, the TGI in the test on SF-295 CNS was 44 µM; with SK-MEL-5 melanoma, 13.3 µM; in the test on SNB-75 CNS, 23 µM; in the test with TK-10 renal it was 11.8 µM.
Turning to `COC(=O)c1cc(NC(=O)Cn2c3ccccc3c3ccccc32)cn1C`, the TGI in the test on A549 NSCLC is more than 100 µM; in the test with EKVX NSCLC, more than 100 µM; in the test with HOP-62 NSCLC it was 50.6 µM; in the test on MDA-MB-231 breast, 48.8 µM; in the test with NCI-H522 lung, more than 100 µM; in the test on NCI/ADR-RES ovarian, more than 100 µM. Besides, the TGI in the test with SF-295 CNS was 86.3 µM; in the test on SK-MEL-5 melanoma, more than 100 µM; in the test on TK-10 renal, more than 100 µM.
In the case of `O=C(NC1CCCCC1)N1CCNC1=S`, the TGI was more than 100 µM in the test with A549 NSCLC; more than 100 µM in the test on EKVX NSCLC; more than 100 µM in the test with HOP-62 NSCLC; 8.05 µM in the test on MDA-MB-231 breast; more than 100 µM in the test on NCI-H522 lung; more than 100 µM with NCI/ADR-RES ovarian. Besides, the TGI with SF-295 CNS, with SK-MEL-5 melanoma, in the test with SNB-75 CNS and with TK-10 renal was more than 100 µM throughout.
As to `O=C1C(Nc2ccc(S(=O)(=O)Nc3cnc4ccccc4n3)cc2)=CC(=Nc2ccc(S(=O)(=O)Nc3cnc4ccccc4n3)cc2)c2ccccc21`, the TGI in the test with A549 NSCLC is 38 µM; in the test with EKVX NSCLC, 36.1 µM; in the test on HOP-62 NSCLC, 34.8 µM; in the test with MDA-MB-231 breast, 70.2 µM; in the test with NCI-H522 lung it was 30.5 µM; in the test on NCI/ADR-RES ovarian, more than 100 µM. Besides, the TGI in the test on SF-295 CNS is 30.3 µM; in the test on SK-MEL-5 melanoma, 31.5 µM; in the test with SNB-75 CNS, 28.5 µM; in the test on TK-10 renal, more than 54.7 µM.
Take `COc1cc2c(cc1OC)C/C(=N\O)c1cc(OC)c(OC)cc1/C=C\2`: the TGI with A549 NSCLC is more than 100 µM; in the test on EKVX NSCLC, more than 100 µM; in the test on HOP-62 NSCLC, more than 27 µM; in the test on MDA-MB-231 breast it was more than 29.3 µM; in the test on NCI-H522 lung, 4.8 µM; in the test on NCI/ADR-RES ovarian it was 89.3 µM. Further, the TGI in the test with SF-295 CNS was more than 61 µM; with SK-MEL-5 melanoma, 8.26 µM; in the test on SNB-75 CNS, 78.1 µM; in the test with TK-10 renal, more than 72.6 µM.
With `O=C(O)Cn1cnc2c(=O)[nH]c(Nc3ccccc3)nc21`, the TGI in the test with A549 NSCLC, in the test on EKVX NSCLC, with HOP-62 NSCLC, in the test with MDA-MB-231 breast, in the test on NCI-H522 lung and in the test with NCI/ADR-RES ovarian was more than 100 µM throughout. Moreover, the TGI in the test with SF-295 CNS, with SK-MEL-5 melanoma, with SNB-75 CNS and in the test on TK-10 renal was more than 100 µM each time.
